Results from ChEMBL document CHEMBL1151449, “In vitro activity of DC-159a, a new broad-spectrum fluoroquinolone, compared with that of other agents against drug-susceptible and -resistant pneumococci” (2008).
In brackets after ≈: the same amount, converted by molar mass.

How the values were obtained:
Assay type in all cases: functional
[1] = test system: Streptococcus pneumoniae; experiment: Antibacterial activity against Streptococcus pneumoniae HMC 1066 harboring S81F mutation in quinolone-resistant determining regions of GyrA gene, S79F mutation in QRDR of ParC gene and I460V mutation in QRDR of ParE gene by agar dilution method
[2] = test system: Streptococcus pneumoniae; experiment: Antibacterial activity against Streptococcus pneumoniae HMC 2536 harboring S81Y mutation in quinolone-resistant determining regions of GyrA gene, S79F, K137N mutation in QRDR of ParC gene and I460V mutation in QRDR of ParE gene by agar dilution method
[3] = test system: Streptococcus pneumoniae; experiment: Antibacterial activity against quinolone-susceptible Streptococcus pneumoniae ATCC 49619 by agar dilution method
[4] = test system: Streptococcus pneumoniae; experiment: Antibacterial activity against Streptococcus pneumoniae HMC 2538 harboring S81Y mutation in quinolone-resistant determining regions of GyrA gene, S79F, K137N mutation in QRDR of ParC gene and I460V mutation in QRDR of ParE gene showing efflux to ciprofloxacin, levofloxacin, gatifloxacin by agar dilution method
[5] = test system: Streptococcus pneumoniae; experiment: Antibacterial activity against Streptococcus pneumoniae HMC 1077 harboring S81Y and S79F mutation in quinolone-resistant determining regions of GyrA and ParC genes respectively by agar dilution method
[6] = test system: Streptococcus pneumoniae; experiment: Antibacterial activity against Streptococcus pneumoniae HMC 1156 harboring S81F and S79F mutation in quinolone-resistant determining regions of GyrA and ParC genes respectively showing efflux to ciprofloxacin, gemifloxacin by agar dilution method
[7] = test system: Streptococcus pneumoniae; experiment: Antibacterial activity against Streptococcus pneumoniae HMC 2527 harboring S81Y mutation in quinolone-resistant determining regions of GyrA gene, S79F, K137N mutation in QRDR of ParC gene and I460V mutation in QRDR of ParE gene by agar dilution method
[8] = test system: Streptococcus pneumoniae; experiment: Antibacterial activity against macrolide-, quinolone-susceptible and penicillin-intermediate Streptococcus pneumoniae HMC 99 by broth microdilution method
[9] = test system: Streptococcus pneumoniae; experiment: Antibacterial activity against penicillin-intermediate Streptococcus pneumoniae […] by agar dilution method
[10] = test system: Streptococcus pneumoniae; experiment: Antibacterial activity against penicillin-resistant Streptococcus pneumoniae […] by agar dilution method
[11] = test system: Streptococcus pneumoniae; experiment: Antibacterial activity against macrolide-, quinolone-susceptible and penicillin-intermediate Streptococcus pneumoniae HMC 100 harboring S81Y and S79Y mutation in quinolone-resistant determining regions of GyrA and ParC genes respectively after 42 passages with levofloxacin measured after 10 daily antibiotic-free subculturing by multi-step resistance selection technique
[12] = test system: Streptococcus pneumoniae; experiment: Antibacterial activity against quinolone-susceptible and penicillin-intermediate Streptococcus pneumoniae HMC 5048 expressing mefA after 50 passages by broth microdilution method
[13] = test system: Streptococcus pneumoniae; experiment: Antibacterial activity against Streptococcus pneumoniae HMC 1076 harboring S81F mutation in quinolone-resistant determining regions of GyrA gene, D83N mutation in QRDR of ParC gene and I460V mutation in QRDR of ParE gene by agar dilution method
[14] = test system: Streptococcus pneumoniae; experiment: Antibacterial activity against azithromycin-susceptible Streptococcus pneumoniae ATCC 49619 by agar dilution method
[15] = test system: Streptococcus pneumoniae; experiment: Antibacterial activity against penicillin-, macrolide- and quinolone-susceptible Streptococcus pneumoniae HMC 63 harboring S81F mutation in quinolone-resistant determining regions of GyrA gene, D83Y mutation in QRDR of ParC gene and I460V mutation in QRDR of ParE gene after 34 passages with gemifloxacin measured after 10 daily antibiotic-free subculturing by multi-step resistance selection technique
[16] = test system: Streptococcus pneumoniae; experiment: Antibacterial activity against Streptococcus pneumoniae HMC 1149 harboring S81F and S79Y mutation in quinolone-resistant determining regions of GyrA and ParC genes respectively showing efflux to ciprofloxacin, gemifloxacin by agar dilution method
[17] = test system: Streptococcus pneumoniae; experiment: Antibacterial activity against Streptococcus pneumoniae HMC 1073 harboring S81F mutation in quinolone-resistant determining regions of GyrA gene, and I460V mutation in QRDR of ParE gene by agar dilution method
[18] = test system: Streptococcus pneumoniae; experiment: Antibacterial activity against penicillin-, quinolone-resistant and macrolide-susceptible Streptococcus pneumoniae HMC 1058 harboring S79F, K137N mutation in quinolone-resistant determining regions of ParC gene and 460V mutation in QRDR of ParE gene by broth microdilution method
[19] = test system: Streptococcus pneumoniae; experiment: Antibacterial activity against penicillin-, macrolide- and quinolone-susceptible Streptococcus pneumoniae HMC 63 after 50 passages by broth microdilution method
[20] = test system: Streptococcus pneumoniae; experiment: Antibacterial activity against penicillin-resistant and quinolone-susceptible Streptococcus pneumoniae HMC 228 expressing ermB and harboring S81F mutation in quinolone-resistant determining regions of GyrA gene, D83N mutation in QRDR of ParC gene and I460V mutation in QRDR of ParE gene after 28 passages with DC-159a measured after 10 daily antibiotic-free subculturing by multi-step resistance selection technique
[21] = test system: Streptococcus pneumoniae; experiment: Antibacterial activity against Streptococcus pneumoniae HMC 1058 harboring S79F, K137N mutation in quinolone-resistant determining regions of ParC gene and 460V mutation in QRDR of ParE gene by agar dilution method
[22] = test system: Streptococcus pneumoniae; experiment: Antibacterial activity against penicillin-susceptible, quinolone-resistant Streptococcus pneumoniae 1072 expressing ermB and harboring S81F mutation in quinolone-resistant determining regions of GyrA gene, S79Y mutation in QRDR of ParC gene and I460V mutation in QRDR of ParE gene by broth microdilution method
[23] = test system: Streptococcus pneumoniae; experiment: Antibacterial activity against penicillin-resistant and quinolone-susceptible Streptococcus pneumoniae HMC 3583 expressing mefA and harboring I460V mutation in QRDR of ParE gene after 41 passages with gemifloxacin measured after 10 daily antibiotic-free subculturing by multi-step resistance selection technique
[24] = test system: Streptococcus pneumoniae; experiment: Antibacterial activity against macrolide-, quinolone-susceptible and penicillin-intermediate Streptococcus pneumoniae HMC 100 harboring S81Y mutation in quinolone-resistant determining regions of GyrA gene after 22 passages with moxifloxacin measured after 10 daily antibiotic-free subculturing by multi-step resistance selection technique
[25] = test system: Streptococcus pneumoniae; experiment: Antibacterial activity against Streptococcus pneumoniae HMC 1151 harboring D83N, K137N mutation in quinolone-resistant determining regions of ParC gene and I460V mutation in QRDR of ParE gene showing efflux to ciprofloxacin, gemifloxacin by agar dilution method
[26] = test system: Streptococcus pneumoniae; experiment: Antibacterial activity against Streptococcus pneumoniae HMC 1060 harboring S81F mutation in quinolone-resistant determining regions of GyrA gene, S79F, K137N mutation in QRDR of ParC gene and I460V mutation in QRDR of ParE gene by agar dilution method
[27] = test system: Streptococcus pneumoniae; experiment: Antibacterial activity against penicillin-resistant and quinolone-susceptible Streptococcus pneumoniae HMC 228 expressing ermB and harboring S81F mutation in quinolone-resistant determining regions of GyrA gene, S79Y mutation in QRDR of ParC gene and I460V mutation in QRDR of ParE gene after 36 passages with moxifloxacin measured after 10 daily antibiotic-free subculturing by multi-step resistance selection technique
[28] = test system: Streptococcus pneumoniae; experiment: Antibacterial activity against penicillin- and quinolone-susceptible Streptococcus pneumoniae HMC 5055 expressing mefA by broth microdilution method

| SMILES | MIC [1] | MIC [2] | MIC [4] | MIC [5] | MIC [6] | MIC [7] | MIC [11] | MIC [12] | MIC [13] | MIC [15] | MIC [16] | MIC [17] | MIC [18] | MIC [20] | MIC [21] | MIC [22] | MIC [23] | MIC [24] | MIC [25] | MIC [26] | also measured |
| --- | --- | --- | --- | --- | --- | --- | --- | --- | --- | --- | --- | --- | --- | --- | --- | --- | --- | --- | --- | --- | --- |
| COc1c(N2CC3(CC3)[C@](C)(N)C2)c(F)cc2c(=O)c(C(=O)O)cn([C@@H]3C[C@@H]3F)c12.O | 0.5 µg/mL | 1 µg/mL | 1 µg/mL | 1 µg/mL | 1 µg/mL | 1 µg/mL | 1 µg/mL | 0.125 µg/mL | 0.5 µg/mL | 1 µg/mL | 0.25 µg/mL | 1 µg/mL | 0.5 µg/mL | 1 µg/mL | 0.5 µg/mL | 1 µg/mL | 1 µg/mL | 0.5 µg/mL | 0.25 µg/mL | 0.5 µg/mL | MIC50 [3]: 0.12 µg/mL; MIC90 [3]: 0.12 µg/mL; MIC [8]: 0.12 µg/mL; MIC50 [9]: 0.12 µg/mL; MIC90 [9]: 0.12 µg/mL; MIC50 [10]: 0.12 µg/mL; MIC90 [10]: 0.5 µg/mL; MIC50 [14]: 0.12 µg/mL; MIC90 [14]: 0.5 µg/mL; MIC [19]: 0.125 µg/mL; MIC [27]: 1 µg/mL; MIC [28]: 0.12 µg/mL |
| CO/N=C1\CN(c2nc3c(cc2F)c(=O)c(C(=O)O)cn3C2CC2)CC1CN (stereo unspecified) [GEMIFLOXACIN] | 0.25 µg/mL (≈ 0.642 µM) | 0.125 µg/mL (≈ 0.321 µM) | 0.25 µg/mL (≈ 0.642 µM) | 0.25 µg/mL (≈ 0.642 µM) | 0.1 µg/mL (≈ 0.257 µM) | 0.25 µg/mL (≈ 0.642 µM) | 0.5 µg/mL (≈ 1.28 µM) | 0.125 µg/mL (≈ 0.321 µM) | 0.5 µg/mL (≈ 1.28 µM) | 0.5 µg/mL (≈ 1.28 µM) | 0.25 µg/mL (≈ 0.642 µM) | 0.125 µg/mL (≈ 0.321 µM) | 0.12 µg/mL (≈ 0.308 µM) | 1 µg/mL (≈ 2.57 µM) | 0.125 µg/mL (≈ 0.321 µM) | 0.5 µg/mL (≈ 1.28 µM) | 2 µg/mL (≈ 5.14 µM) | 0.25 µg/mL (≈ 0.642 µM) | 0.25 µg/mL (≈ 0.642 µM) | 0.25 µg/mL (≈ 0.642 µM) | MIC50 [3]: 0.03 µg/mL (≈ 0.077 µM); MIC90 [3]: 0.06 µg/mL (≈ 0.154 µM); MIC [8]: 0.06 µg/mL (≈ 0.154 µM); MIC50 [9]: 0.03 µg/mL (≈ 0.077 µM); MIC90 [9]: 0.06 µg/mL (≈ 0.154 µM); MIC50 [10]: 0.03 µg/mL (≈ 0.077 µM); MIC90 [10]: 0.25 µg/mL (≈ 0.642 µM); MIC50 [14]: 0.03 µg/mL (≈ 0.077 µM); MIC90 [14]: 0.25 µg/mL (≈ 0.642 µM); MIC [27]: 2 µg/mL (≈ 5.14 µM); MIC [28]: 0.03 µg/mL (≈ 0.077 µM) |
| COc1c(N2C[C@@H]3CCCN[C@@H]3C2)c(F)cc2c(=O)c(C(=O)O)cn(C3CC3)c12 [MOXIFLOXACIN] | 2 µg/mL (≈ 4.98 µM) | 4 µg/mL (≈ 9.96 µM) | 2 µg/mL (≈ 4.98 µM) | 4 µg/mL (≈ 9.96 µM) | 4 µg/mL (≈ 9.96 µM) | 4 µg/mL (≈ 9.96 µM) | 4 µg/mL (≈ 9.96 µM) | 0.125 µg/mL (≈ 0.311 µM) | 2 µg/mL (≈ 4.98 µM) | 4 µg/mL (≈ 9.96 µM) | 0.25 µg/mL (≈ 0.623 µM) | 2 µg/mL (≈ 4.98 µM) | 2 µg/mL (≈ 4.98 µM) | 2 µg/mL (≈ 4.98 µM) | 0.5 µg/mL (≈ 1.25 µM) | 4 µg/mL (≈ 9.96 µM) | 0.5 µg/mL (≈ 1.25 µM) | 1 µg/mL (≈ 2.49 µM) | 0.25 µg/mL (≈ 0.623 µM) | 2 µg/mL (≈ 4.98 µM) | MIC [19]: 0.25 µg/mL (≈ 0.623 µM); MIC [27]: 2 µg/mL (≈ 4.98 µM); MIC [28]: 0.25 µg/mL (≈ 0.623 µM) |
